Assay results published in patent US5652220A, “Encapsulation of TRH or its analog” (Takeda Chemical Industries, Ltd., priority 1986, dated 1997).

Legend:
[1] = drug trapping percentage into microcapsules (amount actually incorporated vs amount charged); type: physicochemical; conditions: comparison microcapsules, 53 mg TRH, w/o emulsion viscosity about 2,000 cp
Protocol: (§1) The microcapsules obtained by charging TRH in an amount of 1-20% based on PLGA and following the above procedure were tested for drug trapping percentage (percentage of amount actually incorporated into microcapsules to amount charged) and further assayed, in an in vitro dissolution test, for residual TRH in microcapsules after one day of standing in phoshpate buffer (pH 7.0) at 37° C.
(§2) For these microcapsules, the percentage of trapping of CG-3509 was determined and the residual CG-3509 in the microcapsules after one-day standing in phosphate buffer (pH 7.0) at 37° C. was assayed in an in vitro dissolution test.

[2] = in vitro dissolution test: residual drug in microcapsules standing in phosphate buffer (pH 7.0) at 37° C.; type: physicochemical
Protocol: as §1
(b) 1/30M phosphate buffer (pH 7.0), 37° C. (mean for n = 2).
The microcapsules obtained by the procedure of Example 1 were examined for in vitro drug release property and for in vivo drug release property after subcutaneous administration to rats (the residual drug amount in microcapsules at the site of administration was determined).
as §2

trapping percentage ([1]; 4 g PLGA, TRH to PLGA 1.33%): 77% | trapping percentage ([1]; 6 g PLGA, TRH to PLGA 0.88%): 98% | first day release ([2]; Example 2, TRH 2% relative to PLGA, free form or strong acid added): 15.8% | initial release ([2]; Example 2, acetic acid added, TRH 2% relative to PLGA): 33.2% | release of the first day ([2]; TRH concentration relative to PLGA 1%): 65.7% | initial release ([2]; acetic acid added, TRH 5% relative to PLGA): 22.6% | initial release ([2]; comparison microcapsules, TRH to PLGA 0.88%): 67% | initial release ([2]; comparison microcapsules, TRH to PLGA 1.33%): 71%
Compound: NC(=O)[C@@H]1CCCN1C(=O)[C@H](Cc1cnc[nH]1)NC(=O)[C@@H]1CCC(=O)N1 [TRH, pyroGlu-His-ProNH2]
